A short description of this data set: log P determination (HPLC, calibration with unbranched alkan-2-ones). In kind it is physicochemical. Here is the method:
The calibration is carried out using unbranched alkan-2-ones (having 3 to 16 carbon atoms) with known log P values (determination of the log P values by the retention times using linear interpolation between two successive alkanones). The lambda-maX values were determined in the maxima of the chromatographic signals using the UV spectra from 200 nm to 400 nm.

Where [1] appears, read: * LC-MS determination in the acidic range, pH 2.7, 0.1% aqueous formic acid and acetonitrile, linear gradient 10% to 95% acetonitrile.
[2] abbreviates: pH 2.7, read-out: log P (pH 2.7).
Where [3] appears, read: reversed-phase (C18) HPLC column, * LC-MS determination in the acidic range, pH 2.7, 0.1% aqueous formic acid and acetonitrile, linear gradient 10% to 95% acetonitrile, read-out: log p.
[4] abbreviates: * LC-MS determination in the acidic range at pH 2.7, 0.1% aqueous formic acid and acetonitrile, linear gradient 10% to 95% acetonitrile, reversed-phase C 18.

Consider 43 compounds from patent US8569509B2, “Thiazole-4-carboxylic acid esters and thioesters as plant protection agents” (priority 2008, dated 2013).

Read-outs that look alike come from different tables or passages of the source.

Consider `Cc1cc(C(F)(F)F)nn1CC(=O)N1CCC(c2nc(C(=O)OC3CCCC3)cs2)CC1` [compound 3], for which the log p under setting [1] is given as 3.40*.
Still for that read-out and setting: next, `Cc1cc(C(F)(F)F)nn1CC(=O)N1CCC(c2nc(C(=O)OC3CCc4ccccc43)cs2)CC1` (stereo not shown) [compound 8]: 3.76*.
Still for that read-out and setting: next, `Cc1cc(C(F)(F)F)nn1CC(=O)N1CCC(c2nc(C(=O)Oc3ccc4ccccc4c3)cs2)CC1` [compound 10]: 3.84*; `Cc1cc(C(F)(F)F)nn1CC(=O)N1CCC(c2nc(C(=O)OCc3ccc(F)cc3)cs2)CC1` [compound 12]: 3.35*; `Cc1cc(C(F)(F)F)nn1CC(=O)N1CCC(c2nc(C(=O)OCc3ccccc3)cs2)CC1` [compound 15]: 3.37*.
Same read-out and setting: next, `Cc1cc(C(F)(F)F)nn1CC(=O)N1CCC(c2nc(C(=O)OCc3ccc(Cl)cc3)cs2)CC1` [compound 17]: 3.73*.
Take `Cc1ccc(COC(=O)c2csc(C3CCN(C(=O)Cn4nc(C(F)(F)F)cc4C)CC3)n2)cc1` [compound 18]: the log p under setting [1] was 4.21*.
The same measure, in the same setting: next, `COc1ccc(COC(=O)c2csc(C3CCN(C(=O)Cn4nc(C(F)(F)F)cc4C)CC3)n2)cc1` [compound 19]: 3.30*; `Cc1cc(C(F)(F)F)nn1CC(=O)N1CCC(c2nc(C(=O)OCc3ccc(Cl)cc3Cl)cs2)CC1` [compound 20]: 3.69*.
Same read-out and setting: the same measure for `Cc1cc(C(F)(F)F)nn1CC(=O)N1CCC(c2nc(C(=O)OCc3cc(Cl)cc(Cl)c3)cs2)CC1` [compound 21]: 4.24*; for `Cc1cc(C(F)(F)F)nn1CC(=O)N1CCC(c2nc(C(=O)OCc3c(Cl)cccc3Cl)cs2)CC1` [compound 22]: 3.94*; for `Cc1cc(C(F)(F)F)nn1CC(=O)N1CCC(c2nc(C(=O)OCc3cccc(Cl)c3)cs2)CC1` [compound 24]: 3.72*.
On the same count and under the same terms, next, `Cc1cc(C(F)(F)F)nn1CC(=O)N1CCC(c2nc(C(=O)OCc3cccc(C(F)(F)F)c3)cs2)CC1` [compound 25]: 3.81*.
As to `Cc1cc(C(F)(F)F)nn1CC(=O)N1CCC(c2nc(C(=O)SCc3ccc(F)cc3)cs2)CC1` [compound 27, S-(4-Fluorobenzyl) 2-(1-{[5-methyl-3-(trifluoromethyl)-1H-pyrazol-1-yl]acetyl}piperidin-4-yl)-1,3-thiazole-4-carbothioate], the chromatographic logP is, setting by setting: under setting [2], 4; under setting [3], 4.
For the compound `Cc1cc(C(F)(F)F)nn1CC(=O)N1CCC(c2nc(C(=O)OCc3ccc([N+](=O)[O-])cc3)cs2)CC1` [compound 28], the log p under setting [1] is on record as 3.22*.
On the same count and under the same terms, next, `Cc1cc(C(F)(F)F)nn1CC(=O)N1CCC(c2nc(C(=O)OCc3ccc(C(C)(C)C)cc3)cs2)CC1` [compound 29]: 4.57*; `Cc1ccccc1COC(=O)c1csc(C2CCN(C(=O)Cn3nc(C(F)(F)F)cc3C)CC2)n1` [compound 31]: 3.62*.
On the same count and under the same terms, next, `Cc1cc(C(F)(F)F)nn1CC(=O)N1CCC(c2nc(C(=O)OC(C)c3ccc(F)cc3)cs2)CC1` (stereo not shown) [compound 41]: 3.60*.
On the same count and under the same terms, next, `CCC(OC(=O)c1csc(C2CCN(C(=O)Cn3nc(C(F)(F)F)cc3C)CC2)n1)c1ccc(F)cc1` (stereo not shown) [compound 42]: 3.89*.
For the compound `Cc1cc(C(F)(F)F)nn1CC(=O)N1CCC(c2nc(C(=O)OCCc3ccc(F)cc3)cs2)CC1` [compound 43], the log p under setting [1] was 3.55*.
Same read-out and setting: the same measure for `Cc1cc(C(F)(F)F)nn1CC(=O)N1CCC(c2nc(C(=O)Oc3ccccc3)cs2)CC1` [compound 44]: 3.20*; for `Cc1cc(C(F)(F)F)nn1CC(=O)N1CCC(c2nc(C(=O)Oc3ccc(F)cc3)cs2)CC1` [compound 45]: 3.26*.
On to `Cc1cc(C(F)(F)F)nn1CC(=O)N1CCC(c2nc(C(=O)SC3CCCCC3)cs2)CC1` [compound 76, S-Cyclohexyl 2-(1-{[5-methyl-3-(trifluoromethyl)-1H-pyrazol-1-yl]acetyl}piperidin-4-yl)-1,3-thiazole-4-carbothioate], for which the chromatographic logP is, setting by setting: under setting [2], 4.51; under setting [3], 4.51.
With `Cc1cc(C(F)(F)F)nn1CC(=O)N1CCC(c2nc(C(=O)Sc3cccc4ccccc34)cs2)CC1` [compound 77, S-1-Naphthyl 2-(1-{[5-methyl-3-(trifluoromethyl)-1H-pyrazol-1-yl]acetyl}piperidin-4-yl)-1,3-thiazole-4-carbothioate], the chromatographic logP came out at 4.22 under setting [2] and 4.22 under setting [3].
Regarding `Cc1cc(C(F)(F)F)nn1CC(=O)N1CCC(c2nc(C(=O)OCc3ccccn3)cs2)CC1` [compound 80], the log p under setting [1] is 2.21*.
For the compound `Cc1cc(C(F)(F)F)nn1CC(=O)N1CCC(c2nc(C(=O)OCc3cccs3)cs2)CC1` [compound 81], under setting [1], the log p is listed as 3.22*.
Turning to `C[Si](C)(C)COC(=O)c1csc(C2CCN(C(=O)Cn3ccc(C(F)(F)F)n3)CC2)n1` [compound 84], the log p under setting [1] was 3.53*.
Still for that read-out and setting: the same measure for `O=C(OC1CCCCC1)c1csc(C2CCN(C(=O)Cn3ccc(C(F)(F)F)n3)CC2)n1` [compound 85]: 3.42*; for `O=C(OC1CCCc2ccccc21)c1csc(C2CCN(C(=O)Cn3ccc(C(F)(F)F)n3)CC2)n1` (stereo not shown) [compound 89]: 3.68*; for `O=C(OC1CCc2ccccc21)c1csc(C2CCN(C(=O)Cn3ccc(C(F)(F)F)n3)CC2)n1` (stereo not shown) [compound 91]: 3.37*.
As for `O=C(Oc1cccc2ccccc12)c1csc(C2CCN(C(=O)Cn3ccc(C(F)(F)F)n3)CC2)n1` [compound 92], the log p under setting [1] is 3.42*.
On the same count and under the same terms, next, `O=C(OCc1ccccc1)c1csc(C2CCN(C(=O)Cn3ccc(C(F)(F)F)n3)CC2)n1` [compound 94]: 2.99*; `O=C(OCc1ccc(F)cc1)c1csc(C2CCN(C(=O)Cn3ccc(C(F)(F)F)n3)CC2)n1` [compound 95]: 3.04*; `CC(OC(=O)c1csc(C2CCN(C(=O)Cn3ccc(C(F)(F)F)n3)CC2)n1)c1ccc(F)cc1` (stereo not shown) [compound 124]: 3.18*.
For `O=C(OCCc1ccc(F)cc1)c1csc(C2CCN(C(=O)Cn3ccc(C(F)(F)F)n3)CC2)n1` [compound 126], under setting [4], the log p is given as 3.27*.
On the same count and under the same terms, next, `O=C(Oc1ccccc1)c1csc(C2CCN(C(=O)Cn3ccc(C(F)(F)F)n3)CC2)n1` [compound 127]: 2.85*.
Same read-out and setting: next, `O=C(Oc1ccc(F)cc1)c1csc(C2CCN(C(=O)Cn3ccc(C(F)(F)F)n3)CC2)n1` [compound 128]: 2.89*; `O=C(OCc1ccncc1)c1csc(C2CCN(C(=O)Cn3ccc(C(F)(F)F)n3)CC2)n1` [compound 142]: 1.32*; `O=C(OCc1cccs1)c1csc(C2CCN(C(=O)Cn3ccc(C(F)(F)F)n3)CC2)n1` [compound 143]: 2.85*.
The same measure, in the same setting: next, `Cc1c(Cl)c(C(F)(F)F)nn1CC(=O)N1CCC(c2nc(C(=O)OC[Si](C)(C)C)cs2)CC1` [compound 144]: 4.28*; `Cc1c(Cl)c(C(F)(F)F)nn1CC(=O)N1CCC(c2nc(C(=O)OC3CCCCC3)cs2)CC1` [compound 145]: 4.17*.
Take `Cc1c(Cl)c(C(F)(F)F)nn1CC(=O)N1CCC(c2nc(C(=O)OC3CCCC3)cs2)CC1` [compound 146]: under setting [4], the log p is reported as 3.84*.
For `Cc1c(Cl)c(C(F)(F)F)nn1CC(=O)N1CCC(c2nc(C(=O)OC3CCCc4ccccc43)cs2)CC1` (stereo not shown) [compound 149], the log p under setting [4] is on record as 4.40*.
